Measured values: US20240316038A1, “APOL1 INHIBITORS AND METHODS OF USE” (Maze Therapeutics, Inc., priority 2021, published 2024)
pEC50: −log10 of the molar value.

What was measured:
APOL1 G2 [1] = target: T1, APOL1 G2 (Homo sapiens, UniProt O14791, DEL388-389); assay: Rescue of HEK293 cell death caused by overexpression of APOL1 (CellTiter-Glo luminescence), HEK293/T-REx APOL1 G2/clone #2; format: cell-based; conditions: reversal of cell death caused by overexpression of APOL1; geometric mean of at least 2 assay runs, † = single assay run (technical duplicate)
T1 construct: expressed in transfected cells; host or cells: HEK293 T-REx clonal lines: HEK T-REx/GCaMP6f/APOL1 G2 K6.3 in A1, HEK293/T-REx APOL1 G2/clone #2 in A2
T1 sequence (O14791 with tags, fused parts or gaps DEL388-389): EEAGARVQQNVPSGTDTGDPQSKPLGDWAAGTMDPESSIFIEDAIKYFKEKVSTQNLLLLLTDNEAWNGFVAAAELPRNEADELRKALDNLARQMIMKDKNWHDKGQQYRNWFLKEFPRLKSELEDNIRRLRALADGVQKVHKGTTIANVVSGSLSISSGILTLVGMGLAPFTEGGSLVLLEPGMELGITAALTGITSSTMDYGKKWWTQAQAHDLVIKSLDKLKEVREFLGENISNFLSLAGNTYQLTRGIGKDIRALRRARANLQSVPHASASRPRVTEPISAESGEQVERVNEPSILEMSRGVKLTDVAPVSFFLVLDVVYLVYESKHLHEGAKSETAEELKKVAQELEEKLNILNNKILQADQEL
Procedure, shortened: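 HEK293/T-REx APOL1 G2 clone #2 cells, 5,000/well, induced with 6 ng/mL doxycycline and exposed to compound (8-point, 3-fold dilutions, 0.5% DMSO) for 17 h at 37 °C. Viability by CellTiter-Glo luminescence; EC50 for reversal of APOL1-induced death from a four-parameter logistic fit, geometric mean of ≥2 runs.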

APOL1 G2 [2] = target: T1, APOL1 G2; assay: APOL1 calcium transport inhibition assay (GCaMP6f calcium influx, FLIPR) in HEK T-REx/GCaMP6f/APOL1 G2 K6.3 cells; format: cell-based; conditions: inhibition of APOL1-mediated calcium influx; geometric mean of at least 2 assay runs, † = single assay run (technical duplicate)
Procedure, shortened: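 HEK293 cells stably expressing GCaMP6f, APOL1 G2 induced 6 h with doxycycline (20 ng/mL added), then washed into Ca2+-free Tyrode's buffer pH 7.4. Compounds (8-point dose response) preincubated 10 min at room temperature, then Ca2+ injected to 5 mM final and influx read on FLIPR. AC50 reported as geometric mean of runs.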

## C[C@@H]1CN(CCc2cc(Cl)cc(C#N)c2)C[C@H]1COc1ccc(S(=O)(=O)C(C)(C)CO)cc1 [Compound 166, 3-chloro-5-{2-[(3S,4S)-3-{[4-(1-hydroxy-2-methylpropane-2-sulfonyl)phenoxy]methyl}-4-methylpyrrolidin-1-yl]ethyl}benzonitrile]
APOL1 G2 [1]
  pEC50: 7.75
APOL1 G2 [2]
  AC50: 256 nM

## C[C@@H]1CN(CCc2cc(Cl)cc(C#N)c2)C[C@H]1COc1ccc(S(=O)(=O)CCCS(C)(=O)=O)cc1 [Compound 167, 3-chloro-5-{2-[(3S,4S)-3-{[4-(3-methanesulfonylpro-panesulfonyl)phe-noxy]methyl}-4-methylpyrrolidin-1-yl]ethyl}benzonitrile]
APOL1 G2 [1]
  pEC50: 7.17
APOL1 G2 [2]
  AC50: 314 nM

## C[C@@H]1CN(CCc2cccc(C#N)c2)C[C@H]1COc1ccc(S(=O)(=O)CCCS(C)(=O)=O)cc1 [Compound 168, 3-{2-[(3S,4S)-3-{[4-(3-methanesulfonylpro-panesulfonyl)phe-noxy]methyl}-4-methylpyrrolidin-1-yl]ethyl}benzonitrile]
APOL1 G2 [1]
  pEC50: 6.90
APOL1 G2 [2]
  AC50: 179 nM

## CN=S(C)(=O)c1ccc(OC[C@@H]2CN(CCc3cccc(C#N)c3)C[C@H]2C)cc1 (stereo partly drawn) [Compound 169, 3-{2-[(3S,4S)-3-methyl-4-({4-[methyl(methyli-mino)oxo-λ^6-sulfanyl]phenoxy}methyl)pyrrolidin-1-yl]ethyl}benzonitrile]
APOL1 G2 [1]
  pEC50: 6.74
APOL1 G2 [2]
  AC50: 79.7 nM

## C[C@@H]1CN(CCc2cccc(C#N)c2)C[C@H]1COc1ccc(S(=O)(=O)C2CNC2)cc1 [Compound 172, 3-{2-[(3S,4S)-3-{[4-(azetidine-3-sulfonyl)phenoxy]methyl}-4-methylpyrrolidin-1-yl]ethyl}benzonitrile]
APOL1 G2 [1]
  pEC50: 6.69
APOL1 G2 [2]
  AC50: 104 nM

## C[C@@H]1CN(CCc2cc(Cl)cc(C#N)c2)C[C@H]1COc1ccc(S(=O)(=O)C2CNC2)cc1 [Compound 173, 3-{2-[(3S,4S)-3-{[4-(azetidine-3-sulfonyl)phenoxy]methyl}-4-methylpyrrolidin-1-yl]ethyl}-5-chlorobenzonitrile]
APOL1 G2 [1]
  pEC50: 6.70
APOL1 G2 [2]
  AC50: 491 nM

## C[C@@H]1CN(CCc2cc(Cl)cc(C#N)c2)C[C@H]1COc1ccc(S(=O)(=O)CCO)cc1 [Compound 174, 3-chloro-5-{2-[(3S,4S)-3-{[4-(2-hydroxyethanesul-fonyl)phenoxy]meth-yl}-4-methylpyrrolidin-1-yl]ethyl}benzonitrile]
APOL1 G2 [1]
  pEC50: 7.44
APOL1 G2 [2]
  AC50: 157 nM

## C[C@@H]1CN(CCc2cc(F)cc(Cl)c2)C[C@H]1COc1ccc(S(C)(=O)=O)cc1 [Compound 181, (3S,4S)-1-[2-(3-chloro-5-fluorophenyl)ethyl]-3-[(4-methanesulfonylphenoxy)methyl]-4-methylpyrrolidine]
APOL1 G2 [1]
  pEC50: 6.49
APOL1 G2 [2]
  AC50: < 96.1 nM

## N#Cc1cc(Cl)cc(CCN2CCN[C@H](COc3ccc(S(=O)(=O)CCO)cc3)C2)c1 [Compound 182, 3-chloro-5-{2-[(3S)-3-{[4-(2-hydroxyethane-sulfonyl)phenoxy]methyl}pi-perazin-1-yl]ethyl}benzo-nitrile]
APOL1 G2 [1]
  pEC50: 6.40
APOL1 G2 [2]
  AC50: 396 nM

## CC(C)(CO)S(=O)(=O)c1ccc(OC[C@@H]2CN(CCc3cc(Cl)cc(C#N)c3)CCN2)cc1 [Compound 183, 3-chloro-5-{2-[(3S)-3-{[4-(1-hydroxy-2-methylpropane-2-sulfonyl)phenoxy]methyl}pi-perazin-1-yl]ethyl}benzo-nitrile]
APOL1 G2 [1]
  pEC50: 6.80
APOL1 G2 [2]
  AC50: 149 nM

## CS(=O)(=O)CCCS(=O)(=O)c1ccc(OC[C@@H]2CN(CCc3cccc(Cl)c3)CCN2)cc1 [Compound 184, (3S)-1-[2-(3-chlorophenyl)ethyl]-3-{[4-(3-methanesulfonylpropanesulfonyl)phenoxy]methyl}piperazine]
APOL1 G2 [1]
  pEC50: 6.21
APOL1 G2 [2]
  AC50: 215 nM

## O=S(=O)(c1ccc(OC[C@@H]2CN(CCc3cccc(Cl)c3)CCN2)cc1)C1CNC1 [Compound 185, (3S)-3-{[4-(azetidine-3-sulfonyl)phenoxy]methyl}-1-[2-(3-chlorophenyl)ethyl]piperazine]
APOL1 G2 [1]
  pEC50: 6.62
APOL1 G2 [2]
  AC50: 322 nM

## CN=S(C)(=O)c1ccc(OC[C@@H]2CN(CCc3cc(Cl)cc(C#N)c3)CCN2)cc1 (stereo partly drawn) [Compound 186, 3-chloro-5-{2-[(3S)-3-({4-[methyl(methyl-imino)oxo-λ^6-sulfanyl]pheno-xy}methyl)pipera-zin-1-yl]ethyl}benzo-nitrile]
APOL1 G2 [1]
  pEC50: 6.20
APOL1 G2 [2]
  AC50: 6980 nM

## CS(=O)(=O)c1ccc(OC[C@@H]2CN(CCc3cc(Cl)cc(C#N)c3)CCN2)cc1 [Compound 189, 3-chloro-5-{2-[(3S)-3-[(4-methanesulfonylphenoxy)methyl]piperazin-1-yl]ethyl}benzonitrile]
APOL1 G2 [1]
  pEC50: 6.04
APOL1 G2 [2]
  AC50: 634 nM

## CS(=O)(=O)c1ccc(OC[C@@H]2CN(CCc3cc(Cl)cc(Cl)c3)CCN2)cc1 [Compound 190, (3S)-1-[2-(3,5-dichlorophenyl)ethyl]-3-[(4-methanesulfonylphenoxy)methyl]piperazine]
APOL1 G2 [1]
  pEC50: 6.54
APOL1 G2 [2]
  AC50: 170 nM

## COc1ccc(Cl)cc1CCN1CCN[C@H](COc2ccc(S(C)(=O)=O)cc2)C1 [Compound 191, (3S)-1-[2-(5-chloro-2-methoxyphenyl)ethyl]-3-[(4-methanesulfonylphenoxy)methyl]piperazine]
APOL1 G2 [1]
  pEC50: 6.18
APOL1 G2 [2]
  AC50: 228 nM

## CS(=O)(=O)c1ccc(OC[C@@H]2CN(CCc3cc(Cl)ccc3OC(F)F)CCN2)cc1 [Compound 192, (3S)-1-{2-[5-chloro-2-(difluoromethoxy)phenyl]eth-yl}-3-[(4-methanesulfonylphenoxy)methyl]piperazine]
APOL1 G2 [1]
  pEC50: 6.04
APOL1 G2 [2]
  AC50: 260 nM

## CS(=O)(=O)c1ccc(OC[C@@H]2CN(CCc3cc(C#N)cc(C(F)(F)F)c3)CCN2)cc1 [Compound 193, 3-{2-[(3S)-3-[(4-methanesulfonylphenoxy)methyl]piperazin-1-yl]ethyl}-5-(trifluoromethyl)benzonitrile]
APOL1 G2 [1]
  pEC50: 6.11
APOL1 G2 [2]
  AC50: 1450 nM

## C[C@@H]1CN(CCc2cc(Cl)cc(C#N)c2)C[C@H]1COc1ccc(S(C)(=O)=O)cc1 [Compound 194, 3-chloro-5-{2-[(3S,4S)-3-[(4-methanesulfonylphenoxy)methyl]-4-methylpyrrolidin-1-yl]ethyl}benzonnitrile]
APOL1 G2 [1]
  pEC50: 6.97
APOL1 G2 [2]
  AC50: 151 nM

## C[C@@H]1CN(CCc2cc(F)cc(C#N)c2)C[C@H]1COc1ccc(S(C)(=O)=O)cc1 [Compound 195, 3-fluoro-5-{2-[(3S,4S)-3-[(4-methanesulfonylphenoxy)methyl]-4-methylpyrrolidin-1-yl]ethyl}benzonitrile]
APOL1 G2 [1]
  pEC50: 6.65
APOL1 G2 [2]
  AC50: 236 nM

## C[C@@H]1CN(CCc2cc(Br)cc(C#N)c2)C[C@H]1COc1ccc(S(C)(=O)=O)cc1 [Compound 196, 3-bromo-5-{2-[(3S,4S)-3-[(4-methanesulfonylphenoxy)methyl]-4-methylpyrrolidin-1-yl]ethyl}benzonitrile]
APOL1 G2 [1]
  pEC50: 6.96
APOL1 G2 [2]
  AC50: 108 nM

## Cc1ccc(Cl)cc1CCN1CCN[C@H](COc2ccc(S(C)(=O)=O)cc2)C1 [Compound 197, (3S)-1-[2-(5-chloro-2-methylphenyl)ethyl]-3-[(4-methanesulfonylphenoxy)methyl]piperazine]
APOL1 G2 [1]
  pEC50: 6.43
APOL1 G2 [2]
  AC50: 334 nM

## Cc1cc(C#N)cc(CCN2C[C@@H](COc3ccc(S(C)(=O)=O)cc3)[C@H](C)C2)c1 [Compound 198, 3-{2-[(3S,4S)-3-[(4-methanesulfonylphenoxy)methyl]-4-methylpyrrolidin-1-yl]ethyl}-5-methylbenzonitrile]
APOL1 G2 [1]
  pEC50: 7.15
APOL1 G2 [2]
  AC50: 197 nM

## CC1CNC(COc2ccc(S(C)(=O)=O)cc2)CN1CCc1cccc(Cl)c1 (stereo not drawn) [Compound 211, 1-[2-(3-chlorophenyl)ethyl]-5-[(4-methanesulfonylphenoxy)methyl]-2-methylpiperazine]
APOL1 G2 [1]
  pEC50: 5.87
APOL1 G2 [2]
  AC50: < 118 nM
